Assay results taken from the NIST ThermoML archive (doi:10.1021/acs.jced.8b01046).
“And” between values parts separate entries of the source, which are not always exact repeats. Identical values can stand only once.

How the values were obtained:
[1] = wn = mass fraction of the nth substance listed; conditions: 102 kPa, Liquid, Vibrating tube method
[2] = Liquid; for mass density: Vibrating tube method

CCCCCCCCCCCC(=O)OCC(COC(=O)CCCCCCCCCCC)OC(=O)CCCCCCCCCCC [1,2,3-propanetriyl tridodecanoate] + CCCCCCCCO
mass density [kg/m3], [1]
Conditions | 293.15 K | 298.15 K | 303.15 K | 313.15 K | 333.15 K | 353.15 K
w1 = 0.019 | 826.7 | 823.3 | 819.7 | 812.8 | 798.7 | 784
w1 = 0.051 | 829.5 | 826.2 | 822.5 | 815.6 | 801.5 | 786.8
w1 = 0.096 | – | – | 826.8 | 819.7 | 805.6 | 790.9
w1 = 0.149 | – | – | 831 | 824 | 809.9 | 795.2
w1 = 1 | – | – | 905.1 | 899.6 | 886.9 | 870.4

CCCCCCCCCC(=O)OCC(COC(=O)CCCCCCCCC)OC(=O)CCCCCCCCC [1,2,3-propanetriyl tridecanoate]
[2]
Conditions | mass density [kg/m3] | vapor or sublimation pressure
293.15 K, 102 kPa | 921.6 | –
298.15 K, 102 kPa | 917.9 | –
303.15 K, 102 kPa | 913.6 | –
313.15 K, 102 kPa | 906.2 | –
333.15 K, 102 kPa | 891 | –
348.5 K, Langmuir technique | – | 1.39e-08 kPa and 1.36e-08 kPa
353.15 K, 102 kPa | 875.9 | –
353.48 K, Langmuir technique | – | 2.94e-08 kPa and 2.9e-08 kPa
358.38 K, Langmuir technique | – | 5.99e-08 kPa
363.18 K, Langmuir technique | – | 1.19e-07 kPa and 1.2e-07 kPa
367.8 K, Langmuir technique | – | 2.27e-07 kPa
367.81 K, Langmuir technique | – | 2.23e-07 kPa

CCCCCCCC(=O)OCC(COC(=O)CCCCCCC)OC(=O)CCCCCCC [1,2,3-propanetriol trioctanoate]
[2]
Conditions | mass density [kg/m3] | vapor or sublimation pressure [kPa]
293.15 K, 102 kPa | 952.7 | –
298.15 K, 102 kPa | 948.9 | –
298.15 K, 120 kPa | 949.9 | –
298.15 K, 9830 kPa | 955.5 | –
298.15 K, 20100 kPa | 961.3 | –
298.15 K, 30020 kPa | 966.6 | –
298.15 K, 40050 kPa | 971.9 | –
298.15 K, 50040 kPa | 977.1 | –
303.15 K, 102 kPa | 944.9 | –
313.15 K, 102 kPa | 937.4 | –
333.15 K, 102 kPa | 922.5 | –
353.15 K, 102 kPa | 907.7 | –
403.2 K, Transpiration method | – | 0.0002069
408.2 K, Transpiration method | – | 0.0003133
413.2 K, Transpiration method | – | 0.0004698
423.2 K, Transpiration method | – | 0.001006
433.2 K, Transpiration method | – | 0.001977
443.2 K, Transpiration method | – | 0.004016
448.2 K, Transpiration method | – | 0.005491

CCCCCCCCCC(=O)OCC(COC(=O)CCCCCCCCC)OC(=O)CCCCCCCCC [1,2,3-propanetriyl tridecanoate] + CCCCCCCCO
mass density [kg/m3], [1]
Conditions | 293.15 K | 298.15 K | 303.15 K | 313.15 K | 333.15 K | 353.15 K
w1 = 0.016 | 826.5 | 823.1 | 819.5 | 812.6 | 798.6 | 783.8
w1 = 0.0385 | 828.7 | 825.1 | 821.6 | 814.7 | 800.7 | 785.9
w1 = 0.0772 | 832.5 | 829 | 825.4 | 818.5 | 804.3 | 789.5
w1 = 0.1287 | 837.4 | 833.9 | 830.3 | 823.3 | 809.1 | 794.4
w1 = 1 | 921.6 | 917.9 | 913.6 | 906.2 | 891 | 875.9

CCCCCCCCCCCC(=O)OCC(COC(=O)CCCCCCCCCCC)OC(=O)CCCCCCCCCCC [1,2,3-propanetriyl tridodecanoate]
[2], 100 kPa
Conditions | mass density [kg/m3]
303.15 K | 905.1
313.15 K | 899.6
333.15 K | 886.9
353.15 K | 870.4
